Test results reported in the supplement of paper PMC10307832.

Assays:
Experiment in all cases: relative viability (nuclei count vs DMSO), 5 days (fraction); higher = more cells survive
NCI-H2405 = system: NCI-H2405
Procedure, shortened: (§1)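 After 5 days of treatment, lung cancer cells in 1536-well plates were fixed and stained in a single step (final 0.05% Triton X-100, 1% formaldehyde, 1 ug/ml Hoechst) and their nuclei counted on 4× images. Treatment had been applied by pin tool the day after seeding as one drug alone or as a fixed anchor-drug dose with five library-drug doses (not always all listed) in √10 steps. Relative viability is the nuclei count of treated wells divided by that of vehicle wells, and values are medians of duplicate plates.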

LC-2-ad = system: LC-2-ad
Procedure, shortened: as §1

NCI-H2087 = system: NCI-H2087
Procedure, shortened: as §1

COR-L 105 = system: COR-L 105
Procedure, shortened: as §1

NCI-H23 = system: NCI-H23
Procedure, shortened: as §1

201T = system: 201T
Procedure, shortened: as §1

NCI-H650 = system: NCI-H650
Procedure, shortened: as §1

NCI-H1915 = system: NCI-H1915
Procedure, shortened: as §1

H3255 = system: H3255
Procedure, shortened: as §1

EPLC-272H = system: EPLC-272H
Procedure, shortened: as §1

NCI-H2126 = system: NCI-H2126
Procedure, shortened: as §1

HCC-827 = system: HCC-827
Procedure, shortened: as §1

NCI-H661 = system: NCI-H661
Procedure, shortened: as §1

NCI-H2347 = system: NCI-H2347
Procedure, shortened: as §1

ChaGo-K-1 = system: ChaGo-K-1
Procedure, shortened: as §1

RERF-LC-KJ = system: RERF-LC-KJ
Procedure, shortened: as §1

NCI-H647 = system: NCI-H647
Procedure, shortened: as §1

HCC-78 = system: HCC-78
Procedure, shortened: as §1

LCLC-97TM1 = system: LCLC-97TM1
Procedure, shortened: as §1

PC-14 = system: PC-14
Procedure, shortened: as §1

NCI-H1666 = system: NCI-H1666
Procedure, shortened: as §1

NCI-H520 = system: NCI-H520
Procedure, shortened: as §1

SMILES: O=c1cc(N2CCOCC2)oc2c(-c3cccc4c3sc3ccccc34)cccc12 + Nc1ncn([C@H]2C[C@H](O)[C@@H](CO)O2)c(=O)n1 [Decitabine] (partner 2 µM)
- relative viability (NCI-H2405; first compound 0.01 µM): 0.82
- relative viability (NCI-H2405; first compound 0.03162 µM): 0.715
- relative viability (NCI-H2405; first compound 0.1 µM): 0.812
- relative viability (NCI-H2405; first compound 0.3162 µM): 0.76
- relative viability (NCI-H2405; first compound 1 µM): 0.788
- relative viability (LC-2-ad; first compound 0.01 µM): 0.736
- relative viability (LC-2-ad; first compound 0.03162 µM): 0.801
- relative viability (LC-2-ad; first compound 0.1 µM): 0.79
- relative viability (LC-2-ad; first compound 0.3162 µM): 0.822
- relative viability (LC-2-ad; first compound 1 µM): 0.893
- relative viability (NCI-H2087; first compound 0.01 µM): 0.261
- relative viability (NCI-H2087; first compound 0.03162 µM): 0.257
- relative viability (NCI-H2087; first compound 0.1 µM): 0.336
- relative viability (NCI-H2087; first compound 0.3162 µM): 0.306
- relative viability (NCI-H2087; first compound 1 µM): 0.297
- relative viability (COR-L 105; first compound 0.01 µM): 0.622
- relative viability (COR-L 105; first compound 0.03162 µM): 0.7
- relative viability (COR-L 105; first compound 0.1 µM): 0.746
- relative viability (COR-L 105; first compound 0.3162 µM): 0.769
- relative viability (COR-L 105; first compound 1 µM): 0.667
- relative viability (NCI-H23; first compound 0.01 µM): 0.288
- relative viability (NCI-H23; first compound 0.03162 µM): 0.322
- relative viability (NCI-H23; first compound 0.3162 µM): 0.326
- relative viability (NCI-H23; first compound 1 µM): 0.307
- relative viability (201T; first compound 0.01 µM): 0.843
- relative viability (201T; first compound 0.03162 µM): 0.863
- relative viability (201T; first compound 0.1 µM): 0.83
- relative viability (201T; first compound 0.3162 µM): 0.86
- relative viability (201T; first compound 1 µM): 0.818
- relative viability (NCI-H650; first compound 0.01 µM): 0.319
- relative viability (NCI-H650; first compound 0.03162 µM): 0.384
- relative viability (NCI-H650; first compound 0.3162 µM): 0.338
- relative viability (NCI-H650; first compound 1 µM): 0.303
- relative viability (NCI-H1915; first compound 0.01 µM): 0.28
- relative viability (NCI-H1915; first compound 0.03162 µM): 0.253
- relative viability (NCI-H1915; first compound 0.1 µM): 0.256
- relative viability (NCI-H1915; first compound 0.3162 µM): 0.291
- relative viability (NCI-H1915; first compound 1 µM): 0.266
- relative viability (H3255; first compound 0.01 µM): 0.598
- relative viability (H3255; first compound 0.03162 µM): 0.715
- relative viability (H3255; first compound 0.1 µM): 0.56
- relative viability (H3255; first compound 0.3162 µM): 0.604
- relative viability (H3255; first compound 1 µM): 0.533
- relative viability (EPLC-272H; first compound 0.01 µM): 0.392
- relative viability (EPLC-272H; first compound 0.03162 µM): 0.398
- relative viability (EPLC-272H; first compound 0.1 µM): 0.329
- relative viability (EPLC-272H; first compound 0.3162 µM): 0.359
- relative viability (EPLC-272H; first compound 1 µM): 0.376
- relative viability (NCI-H2126; first compound 0.01 µM): 0.558
- relative viability (NCI-H2126; first compound 0.03162 µM): 0.609
- relative viability (NCI-H2126; first compound 0.1 µM): 0.601
- relative viability (NCI-H2126; first compound 0.3162 µM): 0.559
- relative viability (NCI-H2126; first compound 1 µM): 0.569
- relative viability (HCC-827; first compound 0.01 µM): 0.291
- relative viability (HCC-827; first compound 0.03162 µM): 0.329
- relative viability (HCC-827; first compound 0.1 µM): 0.296
- relative viability (HCC-827; first compound 0.3162 µM): 0.314
- relative viability (HCC-827; first compound 1 µM): 0.161
- relative viability (NCI-H661; first compound 0.01 µM): 0.563
- relative viability (NCI-H661; first compound 0.03162 µM): 0.53
- relative viability (NCI-H661; first compound 0.1 µM): 0.599
- relative viability (NCI-H661; first compound 0.3162 µM): 0.535
- relative viability (NCI-H661; first compound 1 µM): 0.587
- relative viability (NCI-H2347; first compound 0.01 µM): 0.606
- relative viability (NCI-H2347; first compound 0.03162 µM): 0.632
- relative viability (NCI-H2347; first compound 0.1 µM): 0.609
- relative viability (NCI-H2347; first compound 0.3162 µM): 0.641
- relative viability (NCI-H2347; first compound 1 µM): 0.603
- relative viability (ChaGo-K-1; first compound 0.01 µM): 0.524
- relative viability (ChaGo-K-1; first compound 0.03162 µM): 0.539
- relative viability (ChaGo-K-1; first compound 0.1 µM): 0.532
- relative viability (ChaGo-K-1; first compound 0.3162 µM): 0.57
- relative viability (ChaGo-K-1; first compound 1 µM): 0.546
- relative viability (RERF-LC-KJ; first compound 0.01 µM): 0.746
- relative viability (RERF-LC-KJ; first compound 0.03162 µM): 0.697
- relative viability (RERF-LC-KJ; first compound 0.1 µM): 0.778
- relative viability (RERF-LC-KJ; first compound 0.3162 µM): 0.751
- relative viability (RERF-LC-KJ; first compound 1 µM): 0.712
- relative viability (NCI-H647; first compound 0.01 µM): 0.318
- relative viability (NCI-H647; first compound 0.03162 µM): 0.356
- relative viability (NCI-H647; first compound 0.1 µM): 0.382
- relative viability (NCI-H647; first compound 0.3162 µM): 0.419
- relative viability (NCI-H647; first compound 1 µM): 0.371
- relative viability (HCC-78; first compound 0.01 µM): 0.611
- relative viability (HCC-78; first compound 0.03162 µM): 0.716
- relative viability (HCC-78; first compound 0.1 µM): 0.544
- relative viability (HCC-78; first compound 0.3162 µM): 0.652
- relative viability (HCC-78; first compound 1 µM): 0.692
- relative viability (LCLC-97TM1; first compound 0.01 µM): 0.261
- relative viability (LCLC-97TM1; first compound 0.03162 µM): 0.227
- relative viability (LCLC-97TM1; first compound 0.1 µM): 0.227
- relative viability (LCLC-97TM1; first compound 0.3162 µM): 0.252
- relative viability (LCLC-97TM1; first compound 1 µM): 0.235
- relative viability (PC-14; first compound 0.01 µM): 0.274
- relative viability (PC-14; first compound 0.03162 µM): 0.272
- relative viability (PC-14; first compound 0.1 µM): 0.191
- relative viability (PC-14; first compound 0.3162 µM): 0.267
- relative viability (PC-14; first compound 1 µM): 0.267
- relative viability (NCI-H1666; first compound 0.01 µM): 0.71
- relative viability (NCI-H1666; first compound 0.03162 µM): 0.762
- relative viability (NCI-H1666; first compound 0.1 µM): 0.713
- relative viability (NCI-H1666; first compound 0.3162 µM): 0.736
- relative viability (NCI-H1666; first compound 1 µM): 0.677
- relative viability (NCI-H520; first compound 0.01 µM): 0.59
- relative viability (NCI-H520; first compound 0.03162 µM): 0.565
- relative viability (NCI-H520; first compound 0.1 µM): 0.529
- relative viability (NCI-H520; first compound 0.3162 µM): 0.557
- relative viability (NCI-H520; first compound 1 µM): 0.525
